From paper PMC10011554, “BET inhibitor trotabresib in heavily pretreated patients with solid tumors and diffuse large B-cell lymphomas” (Nature Communications, 2023)

Assay: Adverse events, DLTs, MTD and RP2D in phase I study CC-90010-ST-001 (NCI CTCAE v4.03)
Assay type: in vivo
Procedure: The primary endpoints of the study were the safety and tolerability of trotabresib, as well as the MTD and/or RP2D of trotabresib. Safety was assessed using the National Cancer Institute Common Terminology Criteria for Adverse Events v4.03[53].
The decision to evaluate additional subjects within a dose cohort, a higher dose cohort, intermediate dose cohorts, smaller dose increments, alternate dosing schedules, or declare an MTD will also be determined by the SRC, based on their review of clinical and laboratory safety […]
7.2.4. Definition of a Subject Evaluable for DLT
After the first dose is administered in any cohort during dose escalation, subjects in each cohort […]
more than one subject per day will be enrolled in a given dose escalation cohort.
A subject evaluable for DLT is defined as one that: […]
without experiencing a DLT,
Subjects non-evaluable for DLT will be replaced. Additional subjects within any dose cohort may be enrolled at the discretion of the SRC. Intra-subject dose escalation will not be allowed during the DLT assessment period.
7.2.5. Definition of Maximum Tolerated Dose (MTD) […]
of MTD is described in Section 7.2.2.
A variable dose cohort (eg, less frequent dosing) may be evaluated to accurately determine the MTD at the discretion of the SRC.
7.2.6. Definition of Dose-Limiting Toxicity (DLT) […]
used as a guide for the grading of severity of adverse events. A DLT is defined as any of the following toxicities occurring within the DLT assessment unless the event can clearly be […]
Do se-limiting toxicities are described below:
• Hyperglycemia meeting any of the following criteria:
− Grade 3 or greater fasting hyperglycemia (> 250 mg/dL) lasting > 4 days despite optimal medical treatment
(1 picture or pasted object on this page, not shown here)
− Hyperglycemia associated with diabetic ketoacidosis or nonketotic hyperosmolar coma regardless of glucose level
− Hyperglycemia that necessitates dose reduction despite dose interruption and resolution to ≤ grade 1 hyperglycemia within two weeks as described in […]
• Any Grade 4 non-hematologic toxicity of any duration
• Any non-hematologic toxicity Grade ≥ 3 EXCEPT for:
− Grade 3 diarrhea, nausea, or vomiting of ≤ 3 days duration (with optimal medical […]
− Grade 3 rash of the acneiform, pustular or maculopapular type which resolves to […]
level with resumption of study drug at the same dose (with optimal medical […]
− Grade 3 fatigue which resolves to Grade ≤ 2 within 7 days of study drug […]
the same dose (with optimal medical management).
• Hematological toxicities as follows:
− Grade 4 neutropenia lasting > 7 days
− Grade 4 thrombocytopenia lasting > 7 days, Grade ≥ 3 thrombocytopenia with clinically significant bleeding
• Any AE, Grade ≥ 2 not specified or exempt above, unless clearly determined to be unrelated to the drug, necessitating dose-level reduction during Cycle 1.
Isolated laboratory changes without associated clinical signs or symptoms (eg, hypomagnesemia, hypermagnesemia, hypoalbuminemia, hypophosphatemia, lymphocyte count increased or decreased) may not be included in this definition. These findings will be discussed and reviewed […]
7.2.7. Criteria for Dose Escalation in the Next Cohort of Subjects
During Part A, the dose escalation criteria are described in Section 7.2.2.
7.2.8. Definition of Stopping Criteria
During Part A, the dose escalation stopping rules are in Section 7.2.2.
7.2.9. Permitted Study Drug Adjustments
Dose reductions are permitted in any cycle, including Cycle 1.
• Dose reductions that occur in Cycle 1 during dose escalation will constitute DLT as […]

[1] = part B (12 subjects), 02 Dec 2019 cutoff

## Cn1cc(-c2cc(S(C)(=O)=O)ccc2OCC2CC2)c2ccccc2c1=O [trotabresib]
Part A, grade 3
  TRAE: Hyperglycemia: 1.45%
  TRAE: Hypertension: 0%
  TRAE: Hyponatremia: 1.45%
  TRAE: Hypophosphatemia: 1.45%
  TRAE: Nausea: 0%
  TRAE: Neutropenia: 1.45%
  TRAE: Platelet count decreased: 1.45%
  TRAE: Stomatitis: 0%
  TRAE: Thrombocytopenia: 10.14%
  TRAE: Vomiting: 0%
Part A, grade 4
  TRAE: ALT increased: 0%
  TRAE: Anemia: 0%
  TRAE: Any TRAE: 7.25%
  TRAE: Asthenia: 0%
  TRAE: Decreased appetite: 0%
  TRAE: Dehydration: 0%
  TRAE: Dermatitis acneiform: 0%
  TRAE: Diarrhoea: 0%
  TRAE: Dysgeusia: 0%
  TRAE: Fatigue: 0%
  TRAE: Hyperglycemia: 0%
  TRAE: Hypertension: 0%
  TRAE: Hyponatremia: 1.45%
  TRAE: Hypophosphatemia: 0%
  TRAE: Nausea: 0%
  TRAE: Neutropenia: 0%
  TRAE: Platelet count decreased: 1.45%
  TRAE: Stomatitis: 0%
  TRAE: Thrombocytopenia: 2.9%
  TRAE: Vomiting: 0%
[1]
  Grade 3 hyperglycemia, treatment-related: 8.3%
  Grade 4 hyperglycemia, treatment-related: 8.3%
  TEAE anemia: 66.7%
  TEAE thrombocytopenia: 58.3%
  hyperglycemia: 33.3%
  subjects with at least one TEAE: 83.3%
Part B DLBCL, any grade
  TRAE: ALT increased: 8.7%
  TRAE: Anemia: 43.48%
  TRAE: Any TRAE: 100%
  TRAE: Asthenia: 21.74%
  TRAE: Decreased appetite: 21.74%
  TRAE: Dehydration: 13.04%
  TRAE: Dermatitis acneiform: 0%
  TRAE: Diarrhoea: 52.17%
  TRAE: Dysgeusia: 8.7%
  TRAE: Fatigue: 0%
  TRAE: Hyperglycemia: 39.13%
  TRAE: Hypertension: 4.35%
  TRAE: Hyponatremia: 8.7%
  TRAE: Hypophosphatemia: 17.39%
  TRAE: Nausea: 21.74%
  TRAE: Neutropenia: 39.13%
  TRAE: Platelet count decreased: 0%
  TRAE: Stomatitis: 17.39%
  TRAE: Thrombocytopenia: 91.3%
  TRAE: Vomiting: 17.39%
Part B DLBCL, grade 3
  TRAE: ALT increased: 0%
  TRAE: Anemia: 26.09%
  TRAE: Any TRAE: 26.09%
  TRAE: Asthenia: 8.7%
  TRAE: Decreased appetite: 4.35%
  TRAE: Dehydration: 13.04%
  TRAE: Dermatitis acneiform: 0%
  TRAE: Diarrhoea: 0%
  TRAE: Dysgeusia: 0%
  TRAE: Fatigue: 0%
  TRAE: Hyperglycemia: 4.35%
  TRAE: Hypertension: 4.35%
  TRAE: Hyponatremia: 0%
  TRAE: Hypophosphatemia: 13.04%
  TRAE: Nausea: 4.35%
  TRAE: Neutropenia: 13.04%
  TRAE: Platelet count decreased: 0%
  TRAE: Stomatitis: 0%
  TRAE: Thrombocytopenia: 17.39%
  TRAE: Vomiting: 0%
Part B DLBCL, grade 4
  TRAE: ALT increased: 0%
  TRAE: Anemia: 0%
  TRAE: Any TRAE: 65.22%
  TRAE: Asthenia: 0%
  TRAE: Decreased appetite: 0%
  TRAE: Dehydration: 0%
  TRAE: Dermatitis acneiform: 0%
  TRAE: Diarrhoea: 0%
  TRAE: Dysgeusia: 0%
  TRAE: Fatigue: 0%
  TRAE: Hyperglycemia: 4.35%
